According to ChEMBL document CHEMBL4414631 (J Med Chem, 2019):

Legend:
[1] = target: Phosphatidylinositol 4,5-bisphosphate 3-kinase catalytic subunit beta isoform (Homo sapiens, UniProt P42338); test: Inhibition of PI3Kbeta (unknown origin) using biotin-PIP3 as substrate preincubated for 15 mins followed by substrate addition and measured after 60 mins by fluorescence polarization assay
[2] = target: Phosphatidylinositol 4,5-bisphosphate 3-kinase catalytic subunit gamma isoform (Homo sapiens, UniProt P48736)
Description: Inhibition of PI3Kgamma (unknown origin) using biotin-PIP3 as substrate preincubated for 15 mins followed by substrate addition and measured after 60 mins by fluorescence polarization assay

[3] = target: Phosphatidylinositol 4,5-bisphosphate 3-kinase catalytic subunit alpha isoform (Homo sapiens, UniProt P42336)
Description: Inhibition of PI3Kalpha (unknown origin) using biotin-PIP3 as substrate preincubated for 15 mins followed by substrate addition and measured after 60 mins by fluorescence polarization assay

[4] = target: T1, Phosphatidylinositol 4,5-bisphosphate 3-kinase catalytic subunit delta isoform (Homo sapiens, UniProt O00329)
T1 sequence (O00329 whole entry): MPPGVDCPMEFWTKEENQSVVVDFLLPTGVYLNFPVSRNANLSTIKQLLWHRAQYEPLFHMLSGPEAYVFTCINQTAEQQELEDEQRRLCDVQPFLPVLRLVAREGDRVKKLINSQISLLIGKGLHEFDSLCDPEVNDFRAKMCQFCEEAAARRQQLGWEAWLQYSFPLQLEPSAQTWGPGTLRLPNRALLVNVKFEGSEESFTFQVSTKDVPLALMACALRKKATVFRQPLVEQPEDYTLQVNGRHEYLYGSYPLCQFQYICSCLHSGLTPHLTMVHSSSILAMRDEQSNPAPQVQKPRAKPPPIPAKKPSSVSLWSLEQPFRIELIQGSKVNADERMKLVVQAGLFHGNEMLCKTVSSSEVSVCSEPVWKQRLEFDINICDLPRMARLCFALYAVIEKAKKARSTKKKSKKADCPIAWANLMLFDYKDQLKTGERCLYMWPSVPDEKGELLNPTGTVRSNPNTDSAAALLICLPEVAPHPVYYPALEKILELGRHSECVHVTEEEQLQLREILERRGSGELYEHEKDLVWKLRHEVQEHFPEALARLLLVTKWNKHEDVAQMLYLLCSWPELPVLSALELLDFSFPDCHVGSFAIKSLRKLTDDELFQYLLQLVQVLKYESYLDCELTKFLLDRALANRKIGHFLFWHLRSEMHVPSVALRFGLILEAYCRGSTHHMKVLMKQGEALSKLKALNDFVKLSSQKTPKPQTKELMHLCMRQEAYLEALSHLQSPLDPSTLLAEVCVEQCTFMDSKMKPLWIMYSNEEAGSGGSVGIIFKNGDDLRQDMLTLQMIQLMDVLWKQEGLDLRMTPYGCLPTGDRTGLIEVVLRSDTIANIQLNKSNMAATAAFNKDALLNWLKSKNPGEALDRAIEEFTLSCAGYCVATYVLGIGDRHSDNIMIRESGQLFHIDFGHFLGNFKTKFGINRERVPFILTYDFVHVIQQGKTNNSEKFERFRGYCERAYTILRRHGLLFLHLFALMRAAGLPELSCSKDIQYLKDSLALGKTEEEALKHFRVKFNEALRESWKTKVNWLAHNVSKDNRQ
Description: Inhibition of PI3Kdelta (unknown origin) using biotin-PIP3 as substrate preincubated for 15 mins followed by substrate addition and measured after 60 mins by fluorescence polarization assay

[5] = Lipophilicity, logD of compound at pH 7.4 by HPLC-MS analysis; details: buffer

Sequence of Phosphatidylinositol 4,5-bisphosphate 3-kinase catalytic subunit beta isoform (P42338 whole entry, canonical isoform): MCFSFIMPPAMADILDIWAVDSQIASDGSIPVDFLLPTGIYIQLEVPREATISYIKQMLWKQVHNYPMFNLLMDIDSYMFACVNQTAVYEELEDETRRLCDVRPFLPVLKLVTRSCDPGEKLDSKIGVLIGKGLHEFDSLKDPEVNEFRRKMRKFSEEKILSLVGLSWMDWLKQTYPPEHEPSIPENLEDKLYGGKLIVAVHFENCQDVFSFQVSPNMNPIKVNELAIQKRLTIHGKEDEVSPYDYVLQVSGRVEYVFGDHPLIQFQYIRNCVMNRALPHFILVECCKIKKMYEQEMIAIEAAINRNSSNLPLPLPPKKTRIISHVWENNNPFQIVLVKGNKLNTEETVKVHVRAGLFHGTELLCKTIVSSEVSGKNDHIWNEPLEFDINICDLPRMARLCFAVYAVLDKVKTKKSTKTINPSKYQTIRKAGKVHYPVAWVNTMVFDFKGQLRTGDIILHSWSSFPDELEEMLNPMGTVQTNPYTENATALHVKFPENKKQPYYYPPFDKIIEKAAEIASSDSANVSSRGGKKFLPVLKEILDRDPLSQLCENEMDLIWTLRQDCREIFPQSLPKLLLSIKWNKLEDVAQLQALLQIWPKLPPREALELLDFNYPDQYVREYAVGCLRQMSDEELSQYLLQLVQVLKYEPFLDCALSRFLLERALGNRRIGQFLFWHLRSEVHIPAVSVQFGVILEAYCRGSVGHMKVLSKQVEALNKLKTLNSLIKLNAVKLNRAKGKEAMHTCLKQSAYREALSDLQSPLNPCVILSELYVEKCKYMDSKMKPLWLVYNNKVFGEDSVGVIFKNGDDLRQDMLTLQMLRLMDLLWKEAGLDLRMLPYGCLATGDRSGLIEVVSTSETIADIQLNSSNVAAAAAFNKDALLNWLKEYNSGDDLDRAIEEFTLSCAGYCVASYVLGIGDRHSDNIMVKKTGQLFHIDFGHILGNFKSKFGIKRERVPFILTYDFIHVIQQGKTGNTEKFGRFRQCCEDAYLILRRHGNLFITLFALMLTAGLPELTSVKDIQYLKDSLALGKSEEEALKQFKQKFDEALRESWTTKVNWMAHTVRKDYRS
Sequence of Phosphatidylinositol 4,5-bisphosphate 3-kinase catalytic subunit gamma isoform (P48736 whole entry, canonical isoform): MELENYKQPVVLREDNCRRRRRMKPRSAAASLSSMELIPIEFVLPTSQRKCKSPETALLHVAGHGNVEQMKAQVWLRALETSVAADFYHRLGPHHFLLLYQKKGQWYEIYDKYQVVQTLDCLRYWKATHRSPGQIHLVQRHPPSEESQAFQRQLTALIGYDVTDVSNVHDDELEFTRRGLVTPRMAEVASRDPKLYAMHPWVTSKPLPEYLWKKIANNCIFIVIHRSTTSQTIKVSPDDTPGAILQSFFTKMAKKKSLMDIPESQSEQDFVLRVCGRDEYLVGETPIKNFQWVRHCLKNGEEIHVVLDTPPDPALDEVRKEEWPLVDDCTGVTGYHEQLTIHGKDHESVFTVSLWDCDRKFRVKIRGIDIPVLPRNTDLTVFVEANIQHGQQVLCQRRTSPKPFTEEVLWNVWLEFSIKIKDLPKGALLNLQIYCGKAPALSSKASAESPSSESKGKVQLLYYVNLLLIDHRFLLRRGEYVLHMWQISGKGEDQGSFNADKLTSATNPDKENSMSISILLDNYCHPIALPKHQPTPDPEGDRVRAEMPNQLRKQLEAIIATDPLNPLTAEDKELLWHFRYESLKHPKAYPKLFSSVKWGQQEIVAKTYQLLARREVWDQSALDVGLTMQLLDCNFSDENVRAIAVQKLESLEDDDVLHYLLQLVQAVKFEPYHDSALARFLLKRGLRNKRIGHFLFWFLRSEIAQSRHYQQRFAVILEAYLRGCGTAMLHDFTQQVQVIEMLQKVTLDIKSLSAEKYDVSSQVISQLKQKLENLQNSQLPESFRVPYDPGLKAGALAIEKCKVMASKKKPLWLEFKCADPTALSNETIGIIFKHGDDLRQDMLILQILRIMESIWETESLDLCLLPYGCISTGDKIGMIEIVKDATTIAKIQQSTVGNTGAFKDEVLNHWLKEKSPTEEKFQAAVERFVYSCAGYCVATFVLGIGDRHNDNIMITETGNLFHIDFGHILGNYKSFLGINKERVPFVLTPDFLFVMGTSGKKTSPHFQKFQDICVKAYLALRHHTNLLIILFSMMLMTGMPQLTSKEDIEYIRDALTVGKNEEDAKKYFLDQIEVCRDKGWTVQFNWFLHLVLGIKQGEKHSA
Sequence of Phosphatidylinositol 4,5-bisphosphate 3-kinase catalytic subunit alpha isoform (P42336 whole entry, canonical isoform): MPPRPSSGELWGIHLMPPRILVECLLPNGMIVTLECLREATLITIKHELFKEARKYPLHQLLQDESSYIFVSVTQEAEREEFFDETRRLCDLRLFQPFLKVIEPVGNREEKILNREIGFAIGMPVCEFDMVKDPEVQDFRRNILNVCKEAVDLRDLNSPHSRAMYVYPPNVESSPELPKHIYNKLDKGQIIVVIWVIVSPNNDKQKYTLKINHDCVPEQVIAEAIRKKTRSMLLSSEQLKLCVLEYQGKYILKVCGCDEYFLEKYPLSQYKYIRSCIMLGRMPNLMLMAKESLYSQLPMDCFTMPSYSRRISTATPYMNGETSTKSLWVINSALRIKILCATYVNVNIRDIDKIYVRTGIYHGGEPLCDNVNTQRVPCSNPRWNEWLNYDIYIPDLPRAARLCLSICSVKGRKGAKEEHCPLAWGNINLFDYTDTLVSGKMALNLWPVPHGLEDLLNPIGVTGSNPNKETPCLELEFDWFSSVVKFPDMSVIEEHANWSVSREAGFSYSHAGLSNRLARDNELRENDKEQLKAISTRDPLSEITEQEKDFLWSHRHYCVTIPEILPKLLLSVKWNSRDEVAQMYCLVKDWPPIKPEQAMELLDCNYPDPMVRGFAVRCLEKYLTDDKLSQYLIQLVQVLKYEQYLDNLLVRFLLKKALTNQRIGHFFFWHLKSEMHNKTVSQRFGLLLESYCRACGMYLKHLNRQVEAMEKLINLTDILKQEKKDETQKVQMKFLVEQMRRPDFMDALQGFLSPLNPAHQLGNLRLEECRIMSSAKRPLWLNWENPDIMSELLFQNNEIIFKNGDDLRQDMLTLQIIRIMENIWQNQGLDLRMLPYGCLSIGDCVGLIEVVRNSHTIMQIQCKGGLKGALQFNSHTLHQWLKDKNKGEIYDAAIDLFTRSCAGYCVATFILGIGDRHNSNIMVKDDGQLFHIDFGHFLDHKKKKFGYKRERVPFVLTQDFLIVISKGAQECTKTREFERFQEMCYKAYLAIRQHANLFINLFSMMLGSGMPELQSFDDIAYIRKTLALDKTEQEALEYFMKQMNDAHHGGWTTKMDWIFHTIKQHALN

SMILES | IC50 [1] [nM] | IC50 [2] [nM] | IC50 [3] [nM] | IC50 [4] [nM] | logD [5]
CC(=O)N(C)C1CCN(Cc2cc3nc(-c4cnc(N)nc4)nc(N4CCOCC4)c3s2)CC1 | 398 | 39.8 | 39.8 | 6.31 | 2.8
CC(=O)NC1CCN(Cc2cc3nc(-c4cccc5[nH]ncc45)nc(N4CCOCC4)c3s2)CC1 | 6310 | – | 631 | 200 | 3.2
CC(=O)N[C@@H]1CCN(Cc2cc3nc(-c4cnc(N)nc4)nc(N4CCOCC4)c3s2)C1 | 2000 | 126 | 126 | 158 | 1.8
CN(C1CCN(Cc2cc3nc(-c4cccc5[nH]ncc45)nc(N4CCOCC4)c3s2)CC1)S(C)(=O)=O | 5010 | 794 | 316 | 39.8 | 4.5
CS(=O)(=O)NC1CCN(Cc2cc3nc(-c4cnc(N)nc4)nc(N4CCOCC4)c3s2)CC1 | 398 | 63.1 | 31.6 | 25.1 | 2.4
CC(=O)N(C)[C@H]1CCN(Cc2cc3nc(-c4cnc(N)nc4)nc(N4CCOCC4)c3s2)C1 | 631 | 15.8 | 20 | 12.6 | 2.5
CNC(=O)NC1CCN(Cc2cc3nc(-c4cccc5[nH]ncc45)nc(N4CCOCC4)c3s2)CC1 | 3160 | – | 251 | 100 | 3.1
COCC(=O)NC1CCN(Cc2cc3nc(-c4cnc(N)nc4)nc(N4CCOCC4)c3s2)CC1 | 794 | 63.1 | 50.1 | 39.8 | 2.3
CS(=O)(=O)NC1CCN(Cc2cc3nc(-c4cccc5[nH]ccc45)nc(N4CCOCC4)c3s2)CC1 | 631 | 1000 | 1260 | 20 | 4.4
CC(=O)N(C)C1CCN(Cc2cc3nc(-c4cccc5[nH]ncc45)nc(N4CCOCC4)c3s2)CC1 | 2000 | 1000 | 501 | 31.6 | 4.1
CC(=O)N(C)[C@@H]1CCN(Cc2cc3nc(-c4cnc(N)nc4)nc(N4CCOCC4)c3s2)C1 | 398 | 25.1 | 31.6 | 7.94 | 2.5
COCC(=O)NC1CCN(Cc2cc3nc(-c4cccc5[nH]ncc45)nc(N4CCOCC4)c3s2)CC1 | 3980 | – | 398 | 126 | 3.9
CC(=O)NC1CCN(Cc2cc3nc(-c4cnc(N)nc4)nc(N4CCOCC4)c3s2)CC1 | 1580 | 158 | 126 | 100 | 2.2
CC(=O)NC1CCN(Cc2cc3nc(-c4cccc5[nH]ccc45)nc(N4CCOCC4)c3s2)CC1 | – | – | 3160 | 79.4 | 4
CN(C1CCN(Cc2cc3nc(-c4cccc5[nH]ccc45)nc(N4CCOCC4)c3s2)CC1)S(C)(=O)=O | 1260 | 794 | 1580 | 12.6 | 5.2
CNC(=O)NC1CCN(Cc2cc3nc(-c4cnc(N)nc4)nc(N4CCOCC4)c3s2)CC1 | 631 | 63.1 | 25.1 | 39.8 | 1.9
CC(=O)N[C@H]1CCN(Cc2cc3nc(-c4cnc(N)nc4)nc(N4CCOCC4)c3s2)C1 | 3980 | 251 | 200 | 316 | 1.8
COCC(=O)N(C)C1CCN(Cc2cc3nc(-c4cccc5[nH]ncc45)nc(N4CCOCC4)c3s2)CC1 | 1580 | – | 501 | 25.1 | 3.8
CNC(=O)NC1CCN(Cc2cc3nc(-c4cccc5[nH]ccc45)nc(N4CCOCC4)c3s2)CC1 | 2510 | – | 3980 | 158 | 3.6

SMILES | IC50 [1] [nM] | IC50 [2] [nM] | IC50 [3] [nM] | IC50 [4] [nM] | logD [5]
COCC(=O)N(C)C1CCN(Cc2cc3nc(-c4cnc(N)nc4)nc(N4CCOCC4)c3s2)CC1 | 631 | 126 | 126 | 15.8 | 2.7
CS(=O)(=O)NC1CCN(Cc2cc3nc(-c4cccc5[nH]ncc45)nc(N4CCOCC4)c3s2)CC1 | 1260 | 794 | 126 | 39.8 | 3.8
COCC(=O)NC1CCN(Cc2cc3nc(-c4cccc5[nH]ccc45)nc(N4CCOCC4)c3s2)CC1 | – | – | – | 79.4 | 4.3
CC(=O)NC1CCN(Cc2cc3nc(-c4cccc5[nH]ncc45)nc(N4CCOCC4)c3s2)C1 (racemic) | 3980 | 1260 | 501 | 251 | 3
COCC(=O)NC1CCCN(Cc2cc3nc(-c4cccc5[nH]ccc45)nc(N4CCOCC4)c3s2)C1 (racemic) | 6310 | 2000 | 2510 | 79.4 | 5
CC(=O)NC1CCCN(Cc2cc3nc(-c4cnc(N)nc4)nc(N4CCOCC4)c3s2)C1 (racemic) | 2000 | 158 | 126 | 79.4 | 2.5
CNC(=O)N(C)C1CCN(Cc2cc3nc(-c4cccc5[nH]ncc45)nc(N4CCOCC4)c3s2)C1 (racemic) | 1580 | 1580 | 794 | 63.1 | –
CNC(=O)NC1CCN(Cc2cc3nc(-c4cnc(N)nc4)nc(N4CCOCC4)c3s2)C1 (racemic) | 1000 | 158 | 63.1 | 158 | 1.7
CS(=O)(=O)NC1CCN(Cc2cc3nc(-c4cccc5[nH]ccc45)nc(N4CCOCC4)c3s2)C1 (racemic) | 631 | 1580 | 1580 | 25.1 | 4.3
CC(=O)NC1CCCN(Cc2cc3nc(-c4cccc5[nH]ncc45)nc(N4CCOCC4)c3s2)C1 (racemic) | 6310 | 1260 | 251 | 79.4 | 4
CC(=O)NC1CCN(Cc2cc3nc(-c4cnc(N)nc4)nc(N4CCOCC4)c3s2)C1 (racemic) | 501 | 79.4 | 31.6 | 79.4 | 1.9
CNC(=O)NC1CCN(Cc2cc3nc(-c4cccc5[nH]ccc45)nc(N4CCOCC4)c3s2)C1 (racemic) | 2000 | 3980 | 3160 | 126 | 3.4
CNC(=O)NC1CCN(Cc2cc3nc(-c4cccc5[nH]ncc45)nc(N4CCOCC4)c3s2)C1 (racemic) | 2510 | 1260 | 316 | 200 | 2.9
COCC(=O)NC1CCN(Cc2cc3nc(-c4cccc5[nH]ccc45)nc(N4CCOCC4)c3s2)C1 (racemic) | 1000 | 2510 | 1580 | 100 | 4.1
CC(=O)NC1CCCN(Cc2cc3nc(-c4cccc5[nH]ccc45)nc(N4CCOCC4)c3s2)C1 (racemic) | 2510 | 2510 | 3980 | 50.1 | 4.5
COCC(=O)NC1CCN(Cc2cc3nc(-c4cnc(N)nc4)nc(N4CCOCC4)c3s2)C1 (racemic) | 501 | 50.1 | 39.8 | 79.4 | 2.3
COCC(=O)NC1CCN(Cc2cc3nc(-c4cccc5[nH]ncc45)nc(N4CCOCC4)c3s2)C1 (racemic) | 3160 | 794 | 316 | 200 | 3.4
CS(=O)(=O)NC1CCN(Cc2cc3nc(-c4cccc5[nH]ncc45)nc(N4CCOCC4)c3s2)C1 (racemic) | 3160 | 1260 | 251 | 63.1 | 3.5
CC(=O)NC1CCN(Cc2cc3nc(-c4cccc5[nH]ccc45)nc(N4CCOCC4)c3s2)C1 (racemic) | 1260 | 2000 | 3160 | 63.1 | 3.7
